Data as given in patent US9078874B2, “Composition and method for treating cognitive impairments in down syndrom subjects” (Centre National De La Recherche Scientifique—CNRS, priority 2009, dated 2015).

Columns and labels:
[1] = test system: cognitively-normal wildtype rodents; settings: cited from earlier work
euploid and Ts65Dn mice = test: Pro-convulsant effects after pentylenetetrazol (45 mg/kg); type: in vivo; settings: sub-convulsant dose 45 mg/kg i.p.
Experimental: For testing the pro-convulsant effects of α5IA, a sub-convulsant dose of pentylenetetrazole (45 mg/kg i.p.) that induces myoclonic convulsions in about 50% of mice was injected i.p. 20 min after injection of α5IA (50 mg/kg) or placebo.
The proconvulsant action of the α5IA was measured after injection of a subconvulsive dose of pentylenetetrazole. Mice were injected with either vehicle or the α5IA (50 mg/kg i.p) and 20 min later they received an intraperitoneal injection of 45 mg/kg of pentylenetetrazole. […] Six to 7 mice were used for each condition. The latency to the first myoclonic jerk episode and the convulsion grade were recorded during a 1200-s period of observation. Four grades were empirically determined: Grade 0: no effect; grade 1: tail up and curved; grade 2: reversed tail and convulsive shivers; grade 3: myoclonic convulsions.
We then tested the proconvulsant effect of α5IA by injecting it (50 mg/kg) 20 min before a sub-convulsant dose of pentylenetetrazol (45 mg/kg) that induces myoclonic convulsions in about 50% of mice.

Ts65Dn mice = settings: mouse, in vivo; cited from earlier work
[2] = test system: children with Down syndrome; settings: 7 to 13 year-old children with Down syndrome; even at doses associated with adverse effects; cited from earlier work
[3] = in vivo; cited from earlier work

CCOC(=O)c1ncn2c1[C@@H]1CCCN1C(=O)c1cc(OC)ccc1-2 [L-655,708]
acquisition in the reference memory water maze test [1]: can facilitate acquisition

C1CCc2nnnn2CC1 [pentylenetetrazole]
mice with myoclonic convulsions (euploid and Ts65Dn mice): about 50 % of mice | acquisition in the reference memory water maze test [1]: can facilitate acquisition | cognition enhancement effect in treated mice compared to control non-treated mice (Ts65Dn mice): did not show a cognition enhancement effect

NC(=O)CN1CCCC1=O [piracetam]
cognitive and behavioural measures [2]: neither cognitive nor behavioural measures demonstrated improvement

COC(=O)c1cc2c(cn1)[nH]c1ccccc12 [β-CCM]
convulsant liability [3]: proconvulsant or convulsant | spatial learning in the Morris watermaze [3]: enhanced spatial learning
